In patent US8722849B2, “Polypeptides” (Novo Nordisk A/S, priority 2011, dated 2014):
pEC50: −log10 of the molar value. Starred links: 1 amine or outer side, 2 acyl side, 3 side chain; linkers in the order of their positions; H or OH if unused. Positions of bridges follow the written chain, without caps; N, C: chain ends. Non-standard residues stand in square brackets, D forms with d. Residues, ends and D or L forms follow the SMILES beside them. *: point of attachment. C20 diacid = O=C(O)CCCCCCCCCCCCCCCCCCC(=O)*; C18 diacid = O=C(O)CCCCCCCCCCCCCCCCC(=O)*; γGlu = O=C(O)[C@H](CCC(=O)[*:2])N[*:1]; Orn = NCCC[C@H](N)C(=O)O; AEEA = NCCOCCOCC(=O)O

Columns and labels:
Assay type in all cases: cell-based
[1] = biological target: T1, rat amylin 3(a) receptor (rat calcitonin(a) receptor + rat RAMP3) (Rattus norvegicus, UniProt P32214+Q9JJ73); assay: Assay (II)b functional cAMP FlashPlate assay, rat amylin receptor; settings: Table 11
T1 construct: expressed in transfected cells; host or cells: BHK tk'ts 13
T1 sequence (P32214 25-479 isoform P32214-2 limits assumed): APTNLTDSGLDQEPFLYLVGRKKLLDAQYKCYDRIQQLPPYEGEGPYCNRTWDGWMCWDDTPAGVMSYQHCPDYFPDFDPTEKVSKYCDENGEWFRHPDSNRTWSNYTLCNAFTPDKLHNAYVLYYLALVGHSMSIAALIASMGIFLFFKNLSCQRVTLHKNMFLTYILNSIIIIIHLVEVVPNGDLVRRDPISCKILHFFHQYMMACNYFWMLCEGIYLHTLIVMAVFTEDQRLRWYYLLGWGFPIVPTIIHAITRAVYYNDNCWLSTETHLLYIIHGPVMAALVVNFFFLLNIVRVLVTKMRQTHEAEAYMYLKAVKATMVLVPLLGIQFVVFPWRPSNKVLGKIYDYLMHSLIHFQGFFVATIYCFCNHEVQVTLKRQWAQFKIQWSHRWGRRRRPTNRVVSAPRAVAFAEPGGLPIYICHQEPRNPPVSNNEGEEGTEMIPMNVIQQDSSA
T1 sequence (Q9JJ73 23-147 partner): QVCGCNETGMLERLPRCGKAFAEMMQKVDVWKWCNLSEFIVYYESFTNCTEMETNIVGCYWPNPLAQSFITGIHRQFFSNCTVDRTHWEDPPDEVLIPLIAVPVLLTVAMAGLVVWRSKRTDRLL
In short: (§1)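 BHK tk'ts 13 cells transiently transfected with rat calcitonin(a) receptor, alone or with rat RAMP3 (amylin 3(a)), were stimulated 24 hours later with sample for 30 min in buffer containing IBMX. cAMP measured by competitive radioactive FlashPlate assay, scintillation read after 3 h detection incubation.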

[2] = biological target: T2, human calcitonin receptor (Homo sapiens, UniProt P30988); assay: Assay (II)a functional CRE-luciferase assay, human calcitonin receptor; settings: Table 7; human calcitonin (CTa) receptor
T2 construct: expressed in transfected cells; host or cells: BHK570
T2 sequence (P30988 25-474): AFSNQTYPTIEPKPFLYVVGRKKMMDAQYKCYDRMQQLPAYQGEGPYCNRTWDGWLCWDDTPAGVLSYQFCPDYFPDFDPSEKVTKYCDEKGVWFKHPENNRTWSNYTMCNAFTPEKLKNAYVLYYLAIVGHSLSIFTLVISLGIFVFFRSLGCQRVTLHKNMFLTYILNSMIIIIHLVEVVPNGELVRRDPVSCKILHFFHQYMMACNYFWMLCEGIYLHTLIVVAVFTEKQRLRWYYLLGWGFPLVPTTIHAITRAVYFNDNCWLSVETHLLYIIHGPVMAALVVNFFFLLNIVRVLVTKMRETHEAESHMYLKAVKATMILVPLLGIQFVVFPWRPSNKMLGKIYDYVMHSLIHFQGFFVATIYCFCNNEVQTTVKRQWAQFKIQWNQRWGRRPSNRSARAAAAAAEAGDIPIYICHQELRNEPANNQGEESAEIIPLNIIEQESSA

[3] = biological target: T3, rat calcitonin (a) receptor (Rattus norvegicus, UniProt P32214); assay: Assay (II)b functional cAMP FlashPlate assay, rat calcitonin receptor; settings: Table 11; read-out: CTa receptor rat EC50
T3 construct: expressed in transfected cells; host or cells: BHK tk'ts 13
T3 sequence (P32214 25-479 isoform P32214-2 limits assumed): T1 sequence (P32214 25-479 isoform P32214-2 limits assumed)
In short: as §1

Compound | pEC50 [1] | pEC50 [2] | pEC50 [3]
CC[C@H](C)[C@H](NC(=O)[C@@H]1CCCN1C(=O)CNC(=O)[C@H](Cc1ccccc1)NC(=O)[C@H](CC(N)=O)NC(=O)[C@H](CC(N)=O)NC(=O)[C@H](CO)NC(=O)[C@H](CO)NC(=O)[C@H](Cc1c[nH]cn1)NC(=O)[C@H](Cc1c[nH]cn1)NC(=O)[C@H](CC(C)C)NC(=O)[C@H](Cc1ccccc1)NC(=O)[C@H](CCC(=O)O)NC(=O)[C@H](C)NC(=O)[C@H](CC(C)C)NC(=O)[C@H](CCCNC(=N)N)NC(=O)[C@H](CCC(N)=O)NC(=O)[C@@H](NC(=O)[C@H](C)NC(=O)[C@@H]1CSSC[C@H](NC(=O)[C@H](CCCNC(=N)N)NC(=O)CNC(=O)CC[C@H](NC(=O)CCCCCCCCCCCCCCCCCCC(=O)O)C(=O)O)C(=O)N[C@@H](CC(N)=O)C(=O)N[C@@H]([C@@H](C)O)C(=O)N[C@@H](C)C(=O)N[C@@H]([C@@H](C)O)C(=O)N1)[C@@H](C)O)C(=O)N[C@@H](CC(C)C)C(=O)N1CCC[C@H]1C(=O)N1CCC[C@H]1C(=O)N[C@H](C(=O)N[C@@H](CC(N)=O)C(=O)N[C@H](C(=O)NCC(=O)N[C@@H](CO)C(=O)N[C@@H](CC(N)=O)C(=O)N[C@H](C(=O)N1CCC[C@H]1C(N)=O)[C@@H](C)O)C(C)C)[C@@H](C)O [Example 101, N-alpha-[(S)-4-Carboxy-4-(19-carboxynonadecanoylamino)butyryl]-Gly-[Arg1,Glu14,His17,Pro37]-pramlintide] ({C20 diacid-γGlu}-GRCNTATCATQRLAEFLHHSSNNFGPILPPTNVGSNTP-NH2; disulfide 3-8 (inferred)) | 10.12 | 10.34 | 10.36
CC[C@H](C)[C@H](NC(=O)[C@@H]1CCCN1C(=O)CNC(=O)[C@H](Cc1ccccc1)NC(=O)[C@H](CC(N)=O)NC(=O)[C@H](CC(N)=O)NC(=O)[C@H](CO)NC(=O)[C@H](CO)NC(=O)[C@H](CCCNC(=N)N)NC(=O)[C@H](Cc1c[nH]cn1)NC(=O)[C@H](CC(C)C)NC(=O)[C@H](Cc1ccccc1)NC(=O)[C@H](CCC(=O)O)NC(=O)[C@H](C)NC(=O)[C@H](CC(C)C)NC(=O)[C@H](CCCNC(=N)N)NC(=O)[C@H](CCC(N)=O)NC(=O)[C@@H](NC(=O)[C@H](C)NC(=O)[C@@H]1CSSC[C@H](NC(=O)[C@H](CCCN)NC(=O)[C@@H](CCCNC(=N)N)NC(=O)[C@@H](CCCNC(=N)N)NC(=O)COCCOCCNC(=O)COCCOCCNC(=O)CC[C@H](NC(=O)CCCCCCCCCCCCCCCCC(=O)O)C(=O)O)C(=O)N[C@@H](CC(N)=O)C(=O)N[C@@H]([C@@H](C)O)C(=O)N[C@@H](C)C(=O)N[C@@H]([C@@H](C)O)C(=O)N1)[C@@H](C)O)C(=O)N[C@@H](CC(C)C)C(=O)N1CCC[C@H]1C(=O)N1CCC[C@H]1C(=O)N[C@H](C(=O)N[C@@H](CC(N)=O)C(=O)N[C@H](C(=O)NCC(=O)N[C@@H](CO)C(=O)N[C@@H](CC(N)=O)C(=O)N[C@H](C(=O)N[C@@H](Cc1ccc(O)cc1)C(N)=O)[C@@H](C)O)C(C)C)[C@@H](C)O [Example 120, N-alpha-[2-(2-{2-[2-(2-{2-[(S)-4-Carboxy-4-(17-carboxyheptadecanoylamino)butyrylamino]ethoxy}ethoxy)acetylamino]ethoxy}ethoxy)acetyl]-D-Arg-D-Arg-[Orn1,Glu14,His17,Arg18]-pramlintide] ({C18 diacid-γGlu-AEEA-AEEA}-[dR][dR][Orn]CNTATCATQRLAEFLHRSSNNFGPILPPTNVGSNTY-NH2; disulfide 4-9 (inferred); C-terminus assumed) | 10.48 | 9.16 | 8.59
